Data as given in patent US7018642B2 (The Procter & Gamble Company, priority 2001, dated 2006).

Legend:
Format in all cases: cell-based
[1] = test system: P. aeruginosa strain PAO1; test: Improved biofilm dispersion screen (already-formed biofilms, crystal violet); conditions: Pseudomonas aeruginosa, 30 mM NaOH step, positive = dispersion, negative = enhancement of pre-existing biofilm, quadruplicate, read-out: average percentage reduction of biofilm relative to the two control values (dispersion)
How it was run: (§1)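 Biofilms pre-grown 24 h without compound, then given fresh medium with compound at 390 μM for another 22–26 h. NaOH wash in PBS (0 mM S. epidermidis, 20 mM P. fluorescens, 30 mM P. aeruginosa; 30 min, room temperature), then crystal violet staining. Percent biofilm reduction calculated against t0 and DMSO t24 controls, quadruplicates; negative values mean enhancement.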

[2] = test system: P. fluorescens strain ATCC 13525; test: as above; conditions: Pseudomonas fluorescens, ATCC13525, 20 mM NaOH step, positive = dispersion, negative = enhancement of pre-existing biofilm, quadruplicate, read-out: average percentage reduction of biofilm relative to the two control values (dispersion)
How it was run: as §1

[3] = test system: S. epidermidis strain ATCC 35984; test: as above; conditions: Staphylococcus epidermidis, ATCC35984, no NaOH, positive = dispersion, negative = enhancement of pre-existing biofilm, quadruplicate, read-out: average percentage reduction of biofilm relative to the two control values (dispersion)
How it was run: as §1

[4] = test system: P. aeruginosa strain PAO1; test: Biofilm prevention screen (96-well microplate, crystal violet); conditions: Pseudomonas aeruginosa, positive = prevention, negative = enhancement of biofilm formation, quadruplicate, read-out: average percentage reduction of biofilm formed relative to DMSO controls
How it was run: (§2)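 Each strain grown in its own modified medium (PAO1: R2A, no Mg^2+, 0.3–0.5% fructose, 3 μM ferrous ammonium sulfate; ATCC 13525: R2A with pyruvate; ATCC 35984: ¼ TSB, 1% fructose). Compounds at three final concentrations (e.g. 250–500, 160, 32 μM), shaken 16–26 h at 30° C. (pseudomonads) or 37° C. (S. epidermidis). Crystal violet A586; % biofilm reduction versus DMSO, quadruplicate means.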

[5] = test system: P. fluorescens strain ATCC 13525; test: as above; conditions: Pseudomonas fluorescens, positive = prevention, negative = enhancement of biofilm formation, quadruplicate, read-out: average percentage reduction of biofilm formed relative to DMSO controls; for inhibition at 32 µM: ATCC13525, 32 μM; for inhibition at 160 µM: ATCC13525, 160 μM; for inhibition at 390 µM: ATCC13525, 390 μM
How it was run: as §2

[6] = test system: S. epidermidis strain ATCC 35984; test: as above; conditions: Staphylococcus epidermidis, positive = prevention, negative = enhancement of biofilm formation, quadruplicate, read-out: average percentage reduction of biofilm formed relative to DMSO controls; for inhibition at 32 µM: ATCC35984, 32 μM; for inhibition at 160 µM: ATCC35984, 160 μM; for inhibition at 390 µM: ATCC35984, 390 μM
How it was run: as §2

CCCCCCCCCCNC(=O)[C@H]1CCCN1 [Compound 166]
inhibition at 390 µM [1]: -2% | inhibition at 390 µM [2]: 0% | inhibition at 390 µM [3]: 70% | inhibition at 32 µM [4]: 10% | inhibition at 160 µM [4]: 22% | inhibition at 390 µM [4]: 96% | inhibition at 32 µM [5]: 0% | inhibition at 160 µM [5]: 57% | inhibition at 390 µM [5]: 98% | inhibition at 32 µM [6]: 13% | inhibition at 160 µM [6]: 100% | inhibition at 390 µM [6]: 101%

CCCCCCCCCCCCNC(=O)[C@H]1CCCN1 [Compound 167]
inhibition at 390 µM [1]: 4% | inhibition at 390 µM [2]: 0% | inhibition at 390 µM [3]: 78% | inhibition at 32 µM [4]: 4% | inhibition at 160 µM [4]: 49% | inhibition at 390 µM [4]: 93% | inhibition at 32 µM [5]: 38% | inhibition at 160 µM [5]: 95% | inhibition at 390 µM [5]: 92% | inhibition at 32 µM [6]: 40% | inhibition at 160 µM [6]: 100% | inhibition at 390 µM [6]: 99%

CC(C)(C)OC(=O)N1CCC[C@@H]1C(=O)NCCCCCCCCCCCCNC(=O)[C@H]1CCCN1C(=O)OC(C)(C)C [Compound 225, N-(tert-Butoxycarbonyl)-D-proline 1,12-diaminododecane bisamide]
inhibition at 390 µM [1]: -23% | inhibition at 390 µM [2]: -85% | inhibition at 390 µM [3]: 0% | inhibition at 32 µM [4]: 11% | inhibition at 160 µM [4]: 7% | inhibition at 390 µM [4]: -8% | inhibition at 32 µM [5]: 14% | inhibition at 160 µM [5]: 0% | inhibition at 390 µM [5]: -14% | inhibition at 32 µM [6]: -21% | inhibition at 160 µM [6]: -24% | inhibition at 390 µM [6]: -39%

CCCCCCNC(=O)[C@@H]1CCN1C(=O)OC(C)(C)C [Compound 283]
inhibition at 390 µM [1]: -11% | inhibition at 390 µM [2]: 0% | inhibition at 390 µM [3]: -11% | inhibition at 32 µM [4]: -7% | inhibition at 160 µM [4]: -10% | inhibition at 390 µM [4]: 0% | inhibition at 32 µM [5]: 3% | inhibition at 160 µM [5]: -1% | inhibition at 390 µM [5]: 13% | inhibition at 32 µM [6]: -3% | inhibition at 160 µM [6]: -10% | inhibition at 390 µM [6]: -23%

CCCCCCCCNC(=O)[C@@H]1CCN1C(=O)OC(C)(C)C [Compound 284]
inhibition at 390 µM [1]: -79% | inhibition at 390 µM [2]: -15% | inhibition at 390 µM [3]: 0% | inhibition at 32 µM [4]: 2% | inhibition at 160 µM [4]: -10% | inhibition at 390 µM [4]: -12% | inhibition at 32 µM [5]: 4% | inhibition at 160 µM [5]: 21% | inhibition at 390 µM [5]: -2% | inhibition at 32 µM [6]: -4% | inhibition at 160 µM [6]: -33% | inhibition at 390 µM [6]: 56%

CCCCCCCCCCNC(=O)[C@@H]1CCN1C(=O)OC(C)(C)C [Compound 285, N-(tert-Butoxycarbonyl)-(S)-(−)-2-azetidinecarboxylic acid n-decyl amide]
inhibition at 390 µM [1]: -37% | inhibition at 390 µM [2]: -74% | inhibition at 390 µM [3]: 0% | inhibition at 32 µM [4]: 7% | inhibition at 160 µM [4]: -20% | inhibition at 390 µM [4]: -21% | inhibition at 32 µM [5]: -12% | inhibition at 160 µM [5]: -44% | inhibition at 390 µM [5]: -32% | inhibition at 32 µM [6]: 2% | inhibition at 160 µM [6]: 17% | inhibition at 390 µM [6]: 66%

CCCCCCNC(=O)[C@@H]1CCN1 [Compound 287]
inhibition at 390 µM [1]: -70% | inhibition at 390 µM [2]: -18% | inhibition at 390 µM [3]: 71% | inhibition at 32 µM [4]: -1% | inhibition at 160 µM [4]: 11% | inhibition at 390 µM [4]: -2% | inhibition at 32 µM [5]: -42% | inhibition at 160 µM [5]: -7% | inhibition at 390 µM [5]: 40% | inhibition at 32 µM [6]: 74% | inhibition at 160 µM [6]: 101% | inhibition at 390 µM [6]: 101%

CCCCCCCCNC(=O)[C@@H]1CCN1 [Compound 288]
inhibition at 390 µM [1]: -32% | inhibition at 390 µM [2]: -2% | inhibition at 390 µM [3]: 72% | inhibition at 32 µM [4]: 12% | inhibition at 160 µM [4]: 97% | inhibition at 390 µM [4]: 96% | inhibition at 32 µM [5]: -14% | inhibition at 160 µM [5]: 40% | inhibition at 390 µM [5]: 59% | inhibition at 32 µM [6]: 101% | inhibition at 160 µM [6]: 101% | inhibition at 390 µM [6]: 99%

CCCCCCCCCCNC(=O)[C@@H]1CCN1 [Compound 289, (S)-(−)-2-azetidinecarboxylic acid n-decyl amide]
inhibition at 390 µM [1]: -54% | inhibition at 390 µM [2]: 19% | inhibition at 390 µM [3]: 84% | inhibition at 32 µM [4]: 9% | inhibition at 160 µM [4]: -2% | inhibition at 390 µM [4]: 77% | inhibition at 32 µM [5]: -8% | inhibition at 160 µM [5]: 45% | inhibition at 390 µM [5]: 99% | inhibition at 32 µM [6]: 39% | inhibition at 160 µM [6]: 101% | inhibition at 390 µM [6]: 101%

CCCCCCCCCCCCNC(=O)[C@@H]1CCN1 [Compound 290]
inhibition at 390 µM [1]: -72% | inhibition at 390 µM [2]: 21% | inhibition at 390 µM [3]: 82% | inhibition at 32 µM [4]: 6% | inhibition at 160 µM [4]: -16% | inhibition at 390 µM [4]: 37% | inhibition at 32 µM [5]: -12% | inhibition at 160 µM [5]: 98% | inhibition at 390 µM [5]: 93% | inhibition at 32 µM [6]: 101% | inhibition at 160 µM [6]: 100% | inhibition at 390 µM [6]: 97%
